Laboratory results from patent US8486931B2, “Substituted oxindole compounds” (Abbott GmbH & Co. KG, priority 2007, dated 2013).

These compounds were tested against T1, human vasopressin V1b receptor (Homo sapiens, UniProt P47901) (assay: Vasopressin V1b receptor binding assay). Settings: membranes from CHO-K1 cells with stably expressed human V1b receptors, 1.5 nM 3H-AVP displacement; with more than one stereogenic center: the diastereomer with stronger affinity.
T1 construct: expressed in transfected cells; host or cells: CHO-K1 (cell line hV1b-3H2_CHO), membrane preparation
T1 sequence (P47901 1-424): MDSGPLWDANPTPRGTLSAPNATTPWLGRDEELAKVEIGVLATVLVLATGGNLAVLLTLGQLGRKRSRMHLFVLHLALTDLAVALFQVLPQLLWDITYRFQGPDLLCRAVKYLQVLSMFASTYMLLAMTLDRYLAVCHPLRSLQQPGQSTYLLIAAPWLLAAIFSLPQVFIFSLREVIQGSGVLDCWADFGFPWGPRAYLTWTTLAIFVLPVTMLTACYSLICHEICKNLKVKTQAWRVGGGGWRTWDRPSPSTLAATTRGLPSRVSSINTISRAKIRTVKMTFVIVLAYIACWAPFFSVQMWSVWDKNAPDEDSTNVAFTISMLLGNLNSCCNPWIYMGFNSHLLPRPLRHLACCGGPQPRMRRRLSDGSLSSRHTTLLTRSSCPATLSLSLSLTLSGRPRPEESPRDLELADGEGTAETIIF
How it was run: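 Membranes bearing human V1b receptor incubated 60 min at room temperature in 50 mM Tris, 10 mM MgCl2, 0.1% BSA, pH 7.4, 2% DMSO, triplicate.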

| Structure (SMILES) | Ki |
| --- | --- |
| CCOc1ccc(CC)cc1C1(N2CCN(c3ccnc(C(C)C)c3)CC2)C(=O)N(S(=O)(=O)c2ccc(OC)cn2)c2ccc(C#N)cc21 (racemic) [Example 166, (±)-5-Cyano-3-(2-ethoxy-5-ethyl-phenyl)-3-[4-(2-isopropyl-pyridin-4-yl)-piperazin-1-yl]-1-(5-methoxy-pyridine-2-sulfonyl)-2,3-dihydro-1H-indol-2-one] | < 10 nM |
| CCOc1nc(Cl)ccc1C1(N2CCN(c3ccnc(C(C)C)c3)CC2)C(=O)N(S(=O)(=O)c2ccc(OC)cn2)c2ccc(C#N)cc21 (racemic) [Example 167, (±)-5-Cyano-3-(6-chloro-2-ethoxy-pyridin-3-yl)-3-[4-(2-isopropyl-pyridin-4-yl)-piperazin-1-yl]-1-(5-methoxy-pyridine-2-sulfonyl)-2,3-dihydro-1H-indol-2-one] | 10 to 50 nM |
| CCOc1nc(Cl)ccc1C1(N2CCCN(c3ccncc3)CC2)C(=O)N(S(=O)(=O)c2ccc(OC)cn2)c2ccc(C#N)cc21 (racemic) [Example 168, (±)-5-Cyano-3-(6-chloro-2-ethoxy-pyridin-3-yl)-1-(5-methoxy-pyridine-2-sulfonyl)-3-(4-pyridin-4-yl-[1,4]diazepan-1-yl)-2,3-dihydro-1H-indol-2-one] | 10 to 50 nM |
| CCOc1ccc(C)cc1C1(N2CCN(c3ccncc3)CC2)C(=O)N(S(=O)(=O)c2ccc(OC)cn2)c2ccc(C#N)cc21 (racemic) [Example 169, (±)-5-Cyano-3-(2-ethoxy-5-methyl-phenyl)-1-(5-methoxy-pyridine-2-sulfonyl)-3-(4-pyridin-4-yl-piperazin-1-yl)-2,3-dihydro-1H-indol-2-one] | < 10 nM |
| CCOc1nc(Cl)ccc1C1(N2CCC(N3CCN(C)CC3)CC2)C(=O)N(S(=O)(=O)c2ccc(OC)cn2)c2ccc(C#N)cc21 (racemic) [Example 170, (±)-5-Cyano-3-(6-chloro-2-ethoxy-pyridin-3-yl)-1-(5-methoxy-pyridine-2-sulfonyl)-3-[4-(4-methyl-piperazin-1-yl)-piperidin-1-yl]-2,3-dihydro-1H-indol-2-one] | < 10 nM |
| CCOc1ccccc1C1(N2CCN(c3ccncc3)CC2)C(=O)N(S(=O)(=O)c2cccc3cccnc23)c2ccc(C#N)cc21 (single isomer, unassigned; (+)) [Example 60, (+)-5-Cyano-3-(2-ethoxyphenyl)-3-(4-pyridin-4-ylpiperazin-1-yl)-1-(quinolin-8-sulfonyl)-2,3-dihydro-1H-indol-2-one] | < 10 nM |
| CCOc1ccccc1C1(N2CCN(c3ccncc3)CC2)C(=O)N(S(=O)(=O)c2ccc(C)cn2)c2ccc(C#N)cc21 (single isomer, unassigned; (+)) [Example 61, (+)-5-Cyano-3-(2-ethoxyphenyl)-1-(5-methylpyridine-2-sulfonyl)-3-(4-pyridin-4-yl-piperazin-1-yl)-2,3-dihydro-1H-indol-2-one] | < 10 nM |
| CCOc1ccccc1C1(N2CCN(c3ccncc3)CC2)C(=O)N(S(=O)(=O)c2cccc3c(C)ccnc23)c2ccc(C#N)cc21 (single isomer, unassigned; (+)) [Example 63, (+)-5-Cyano-3-(2-ethoxyphenyl)-1-(4-methylquinoline-8-sulfonyl)-3-(4-pyridin-4-yl-piperazin-1-yl)-2,3-dihydro-1H-indol-2-one] | < 10 nM |
| CCOc1ccccc1C1(N2CCN(c3ccncc3)CC2)C(=O)N(S(=O)(=O)c2ccc(OC)cn2)c2ccc(C#N)cc21 (single isomer, unassigned; (+)) [Example 64, (+)-5-Cyano-3-(2-ethoxyphenyl)-1-(5-methoxypyridine-2-sulfonyl)-3-(4-pyridin-4-yl-piperazin-1-yl)-2,3-dihydro-1H-indol-2-one] | < 10 nM |
| CCOc1ccccc1C1(N2CCN(c3ccncc3)CC2)C(=O)N(S(=O)(=O)c2ccc(OCC)c3cccnc23)c2ccc(C#N)cc21 (single isomer, unassigned; (+)) [Example 67, (+)-5-Cyano-3-(2-ethoxyphenyl)-1-(5-ethoxyquinoline-8-sulfonyl)-3-(4-pyridin-4-yl-piperazin-1-yl)-2,3-dihydro-1H-indol-2-one] | 10 to 50 nM |
| CCOc1ccc(OC)cc1C1(N2CCN(C3CCNCC3)CC2)C(=O)N(S(=O)(=O)c2ccc(OC)cn2)c2ccc(C#N)cc21 (single isomer, unassigned; (+)) [Example 140, (+)-5-Cyano-3-(2-ethoxy-5-methoxy-phenyl)-1-(5-methoxy-pyridine-2-sulfonyl)-3-(4-piperidin-4-yl-piperazin-1-yl)-2,3-dihydro-1H-indol-2-one] | < 10 nM |

The next lines start with the values.

| Ki | Structure (SMILES) |
| --- | --- |
| < 10 nM | CCOc1cc(OC)ccc1C1(N2CCC(N3CCN(C)CC3)CC2)C(=O)N(S(=O)(=O)c2ccc(OC)cn2)c2ccc(C#N)cc21 (racemic) [Example 171, (±)-5-Cyano-3-(2-ethoxy-4-methoxy-phenyl)-1-(5-methoxy-pyridine-2-sulfonyl)-3-[4-(4-methyl-piperazin-1-yl)-piperidin-1-yl]-2,3-dihydro-1H-indol-2-one] |
| < 10 nM | CCOc1ccc(OC)cc1C1(N2CCN(C3CCNCC3)CC2)C(=O)N(S(=O)(=O)c2ccc(OC)cn2)c2ccc(C#N)cc21 (racemic) [Example 172, (±)-5-Cyano-3-(2-ethoxy-5-methoxy-phenyl)-1-(5-methoxy-pyridine-2-sulfonyl)-3-(4-piperidin-4-yl-piperazin-1-yl)-2,3-dihydro-1H-indol-2-one] |
| < 10 nM | CCOc1c(OC)cccc1C1(N2CCN(c3ccnc(C(C)C)c3)CC2)C(=O)N(S(=O)(=O)c2ccc(OC)cn2)c2ccc(C#N)cc21 (racemic) [Example 173, (±)-5-Cyano-3-(2-ethoxy-3-methoxy-phenyl)-3-[4-(2-isopropyl-pyridin-4-yl)-piperazin-1-yl]-1-(5-methoxy-pyridine-2-sulfonyl)-2,3-dihydro-1H-indol-2-one] |
| < 10 nM | CCOc1cc(OC)ccc1C1(N2CCC(N3CCNCC3)CC2)C(=O)N(S(=O)(=O)c2ccc(OC)cn2)c2ccc(C#N)cc21 (racemic) [Example 174, (±)-5-Cyano-3-(2-ethoxy-4-methoxy-phenyl)-1-(5-methoxy-pyridine-2-sulfonyl)-3-(4-piperazin-1-yl-piperidin-1-yl)-2,3-dihydro-1H-indol-2-one] |
| < 10 nM | CCOc1cc(OC)ccc1C1(N2CCN(c3ccnc(C(C)C)c3)CC2)C(=O)N(S(=O)(=O)c2ccc(OC)cn2)c2ccc(C#N)cc21 (racemic) [Example 175, (±)-5-Cyano-3-(2-ethoxy-4-methoxy-phenyl)-3-[4-(2-isopropyl-pyridin-4-yl)-piperazin-1-yl]-1-(5-methoxy-pyridine-2-sulfonyl)-2,3-dihydro-1H-indol-2-one] |
| < 10 nM | CCOc1nc(Cl)ccc1C1(N2CCN(C3CCNCC3)CC2)C(=O)N(S(=O)(=O)c2ccc(OC)cn2)c2ccc(C#N)cc21 (racemic) [Example 176, (±)-5-Cyano-3-(6-chloro-2-ethoxy-pyridin-3-yl)-1-(5-methoxy-pyridine-2-sulfonyl-3-(4-piperidin-4-yl-piperazin-1-yl)-2,3-dihydro-1H-indol-2-one] |
| < 10 nM | CCOc1nc(Cl)ccc1C1(N2CCCN(c3ccnc(C)c3)CC2)C(=O)N(S(=O)(=O)c2ccc(OC)cn2)c2ccc(C#N)cc21 (racemic) [Example 177, (±)-5-Cyano-3-(6-chloro-2-ethoxy-pyridin-3-yl)-1-(5-methoxy-pyridine-2-sulfonyl)-3-[4-(2-methyl-pyridin-4-yl)-[1,4]diazepan-1-yl]-2,3-dihydro-1H-indol-2-one] |
| 10 to 50 nM | CCOc1cc(OC)ccc1C1(N2CCN(c3ccnc(C)c3)CC2)C(=O)N(S(=O)(=O)c2ccc(OC)cn2)c2ccc(C#N)cc21 (racemic) [Example 178, (±)-5-Cyano-3-(2-ethoxy-4-methoxy-phenyl)-1-(5-methoxy-pyridine-2-sulfonyl)-3-[4-(2-methyl-pyridin-4-yl)-piperazin-1-yl]-2,3-dihydro-1H-indol-2-one] |
| < 10 nM | CCOc1c(OC)cccc1C1(N2CCN(c3ccnc(C)c3)CC2)C(=O)N(S(=O)(=O)c2ccc(OC)cn2)c2ccc(C#N)cc21 (racemic) [Example 179, (±)-5-Cyano-3-(2-ethoxy-3-methoxy-phenyl)-1-(5-methoxy-pyridine-2-sulfonyl)-3-[4-(2-methyl-pyridin-4-yl)-piperazin-1-yl]-2,3-dihydro-1H-indol-2-one] |
| < 10 nM | CCOc1ccc(C)cc1C1(N2CCN(c3ccnc(C)c3)CC2)C(=O)N(S(=O)(=O)c2ccc(OC)cn2)c2ccc(C#N)cc21 (racemic) [Example 180, (±)-5-Cyano-3-(2-ethoxy-5-methyl-phenyl)-1-(5-methoxy-pyridine-2-sulfonyl)-3-[4-(2-methyl-pyridin-4-yl)-piperazin-1-yl]-2,3-dihydro-1H-indol-2-one] |
| < 10 nM | CCOc1ccc(OC)cc1C1(N2CCC(C3CCNCC3)CC2)C(=O)N(S(=O)(=O)c2ccc(OC)cn2)c2ccc(C#N)cc21 (racemic) [Example 181, (±)-5-Cyano-3-[4,4′]bipiperidinyl-1-yl-3-(2-ethoxy-5-methoxy-phenyl)-1-(5-methoxy-pyridine-2-sulfonyl)-2,3-dihydro-1H-indol-2-one] |
| < 10 nM | CCOc1nc(Cl)ccc1C1(N2CCC(N3CCNCC3)CC2)C(=O)N(S(=O)(=O)c2ccc(OC)cn2)c2ccc(C#N)cc21 (racemic) [Example 182, (±)-5-Cyano-3-(6-chloro-2-ethoxy-pyridin-3-yl)-1-(5-methoxy-pyridine-2-sulfonyl)-3-(4-piperazin-1-yl-piperidin-1-yl)-2,3-dihydro-1H-indol-2-one] |
